Results: patent US20130230486A1, “COMPOSITIONS AND METHODS TO INDUCE TARGETED APOPTOSIS” (priority 2010, published 2013)

Assays:
PTPN13 [1] = assay: PTPN13 mRNA expression by quantitative PCR in lung fibroblasts; format: cell-based, human; settings: NHLF, FHLF and MRC5, IFN-γ 50 U/ml, 6 hours
Experimental: (§1) To assess the effects of these cytokines on PTPN13 expression, non-diseased normal human lung fibroblasts (NHLF), fibrotic human lung fibroblasts (FHLF) and a fetal lung fibroblast cell line, MRC5 cells, were treated with TNF-α (10/ng/ml), IFN-γ (50 U/ml) or with both cytokines for 6 hours. PTPN13 expression was measured by quantitative PCR (FIG. 2A). The primary lung fibroblasts from normal and fibrotic lung had equivalent levels of PTPN13 expression to the MRC5 lung fibroblast cell line. […] Treatment with TNF-α alone caused a 40% decrease in PTPN13 expression. Combined exposure to TNF-α and IFN-γ decreased PTPN13 mRNA expression by 80%. Protein lysates from normal, fibrotic and MRC5 fibroblasts treated for 36 hours with TNF-α (10/ng/ml), IFN-γ (50 U/ml) or with both cytokines were then analyzed for PTPN13 expression. […]
FIG. 2: TNF-α and IFN-γ decrease PTPN13 expression. […] A. Top panel is a quantitative RT-PCR analysis of PTPN13 mRNA lower panel is a Western blot analysis for PTPN13 protein.B. Time course of PTPN13 mRNA expression following TNF-a (10 ng/ml) and IFN-g (50 U/ml) treatment. […] Caspase-8 was measured using a fluorescence based assay.
Total RNA was obtained from 1×10^6 MRC5 cells using the Qiagen RNA Miniprep Kit (Qiagen) following the manufacturer's instructions. […] The fluorescence values of the threshold cycles were collected and normalized to GAPDH. […]

PTPN13 [2] = assay: PTPN13 protein expression by Western blot in lung fibroblasts; format: cell-based, human; settings: normal, fibrotic and MRC5 fibroblasts; TNF-α 10 ng/ml, IFN-γ 50 U/ml; 36 hours
Experimental: as §1
In one exemplary method, to assess whether PTPN13 expression prevents Fas-induced apoptosis, PTPN13 expression was knocked-down using siRNA. […] Apoptosis was assayed by quantifying activation of caspase-3 and caspase-8 (FIG. 3C).
FIG. 3: Decreased PTPN13 expression sensitizes fibroblasts to Fas-induced apoptosis. […] PTPN13 expression was quantified by western blot analysis and densitometry was performed. […] Fas activating antibody (250 ng/ml) (Fas activating antibody) or PBS (unstimulated) was added for 2 hours before analyzing Caspase-8 activation by a fluorescence-based assay. c. […]

murine model of fibrosis = assay: Bleomycin murine model of fibrosis, mortality; format: in vivo, mouse; settings: 2.5 U/kg bleomycin into the trachea
Experimental: To assess the effect of PTPN13 on development of fibrosis in vivo, we used a murine model of fibrosis in a PTPN13-/- mouse. The PTPN13-/- mouse has been characterized by Grusby to have abnormal STAT4 signaling which leads to augmented skewing toward TH1 or TH2 phenotypes. 2.5 U/kg bleomycin was administered directly into the tracheas of PTPN13-/- mice along with wildtype controls. […] Due to drastic weight decreases in the wildtype mice, two weeks was chosen as the end time point. […] Of the 20 wildtype mice treated with bleomycin, 11 (55%) died before two weeks as compared to the PTPN13-/- mice where three of the 20 (15%) died. Saline had no effect on mortality. Then static compliance was measured. The saline treated wildtype and PTPN13-/- mice had similar values of static compliance. […] Collagen content was measured in the lung using a hydroxyproline assay. […] To determine a possible cause for the decreased static compliance in the PTPN13-/- mice, we also measured other markers of lung disease, such as cellular infiltration and capillary leak. We measured the cellularity of the bronchoalveolar fluid (BALF). […] Capillary leak was determined by albumin present in the BALF (FIG. 6F). […] To validate these findings, stereology was performed on lung sections to quantify presence of collagen and diseased areas. […] Percentage of diseased lung was also measured by stereology. […]

Row | Substance | PTPN13 mRNA expression compared to untreated cells (in words) (PTPN13 [1]) | PTPN13 protein expression (Western blot) (PTPN13 [2]) | decrease in PTPN13 mRNA expression (PTPN13 [1]; TNF-α 10 ng/ml, compared to untreated cells) | mice that died before two weeks (murine model of fibrosis; PTPN13-/- mice, three of 20) | mice that died before two weeks (murine model of fibrosis; wildtype mice, 11 of 20)
1 | IFN-γ: Recombinant human IFN-γ purchased from R&D Systems | minimal decrease | not decreased |  |  | 
2 | TNF-α |  | decreased | 40% |  | 
3 | bleomycin |  |  |  | 15% | 55%
